From patent publication US8785453B2, “Arylpiperazine-containing purine derivatives and uses thereof” (Green Cross Corporation, priority 2009, dated 2014)
Counter-ions that a name gives are not always drawn. Like-named read-outs stand apart in the source and are kept apart here. Marks after values point to notes of the source that are not given here.

How the values were obtained:
[1] = molecular target: T1, human recombinant serotonin 5-HT2A receptor (Homo sapiens, UniProt P28223); assay: Binding affinity for serotonin 5-HT2A receptor ([3H]Ketanserin)
T1 construct: purchased PerkinElmer Life and Analytical Sciences, USA; host or cells: CHO-K1 cells
Method: (§1) Receptor binding affinities of the compounds for serotonin receptors were measured by the method described in the literature (see [Park W K et al., Pharmacol Biochem Behav., 82(2), 361-372 (2005)].
For serotonin 5-HT2A binding, an aliquot of human recombinant serotonin 5-HT2A receptor (PerkinElmer Life and Analytical Sciences, USA) expressed in CHO-K1 cells (5 μg/well) and 1 nM [^3H]Ketanserin (PerkinElmer) were used in the presence of mianserin (20 μM) as a nonspecific. The reaction mixture was incubated for 60 min […] 50 mM Tris-HCl (pH 7.4) buffer containing 4 mM CaCl2 and 0.1% ascorbic acid, and harvested through filtermate A glass fiber filter (Wallac, Finland) presoaked in 0.5% polyethyleneimine (PEI) by microbeta filtermate-96 harvester (PerkinElmer) to terminate the reaction, and then washed with ice cold 50 mM Tris-HCl buffer solution (pH 7.4). The filter was then covered with MeltiLex, sealed in a sample bag, dried in an oven. The radioactivity retained in the filter was finally counted using MicroBeta Plus (Wallac).
(§2) The binding affinity (IC50) of a compound for the receptor was calculated by computerized nonlinear regression analysis (GraphPad Prism Program, San Diego, USA) using 7-8 varied concentrations of the compound run in duplicate tubes.

[2] = molecular target: T2, human recombinant 5-HT2C receptor (Homo sapiens, UniProt P28335); assay: Binding affinity for serotonin 5-HT2C receptor ([3H]Mesulergine)
T2 construct: purchased PerkinElmer
T2 sequence (P28335 33-458): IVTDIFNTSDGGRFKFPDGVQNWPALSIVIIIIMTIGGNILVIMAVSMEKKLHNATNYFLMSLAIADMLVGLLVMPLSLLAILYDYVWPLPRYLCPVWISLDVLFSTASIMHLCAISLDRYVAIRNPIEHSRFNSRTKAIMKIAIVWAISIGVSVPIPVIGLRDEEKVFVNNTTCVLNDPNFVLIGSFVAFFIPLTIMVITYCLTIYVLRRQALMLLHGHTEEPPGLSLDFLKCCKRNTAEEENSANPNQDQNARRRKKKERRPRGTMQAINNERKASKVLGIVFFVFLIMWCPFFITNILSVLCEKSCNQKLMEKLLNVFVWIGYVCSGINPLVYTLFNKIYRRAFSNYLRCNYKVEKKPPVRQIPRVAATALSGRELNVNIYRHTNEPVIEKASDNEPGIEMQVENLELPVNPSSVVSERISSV
Method: as §1, §2
For serotonin 5-HT2C binding, frozen membranes from stable CHO-K1 cell line expressing the human recombinant 5-HT2C receptor (PerkinElmer, 4 μg/well), [^3H]Mesulergine (Amersham, 1.3 nM) and test compounds were added into 50 mM Tris-HCl (pH 7.4) buffer containing 0.1% ascorbic acid and 4 mM CaCl2. Nonspecific binding was determined using 100 μM mianserin. The incubations were performed for 60 min at 27, and these were terminated by rapid filtration through filtermate A glass fiber filter presoaked in 0.5% PEI.

[3] = molecular target: T3, human serotonin transporter (Homo sapiens, UniProt P31645); assay: Binding affinity for serotonin transporter ([3H]Imipramine)
T3 construct: purchased PerkinElmer; host or cells: HEK-293 cells
Method: For serotonin transporter binding assays, a reaction mixture with a final volume of 0.25 ml was prepared by mixing a test compound, human serotonin transporter membrane expressed in HEK-293 cells (PerkinElmer, 5 μg/well), [^3H] Imipramine (PerkinElmer, 2 nM) and 50 mM Tris-HCl (pH 7.4) buffer containing 120 mM NaCl and 5 mM KCl. The reaction mixture was incubated for 30 min at 27, and harvested through filtermate A glass fiber filter presoaked in 0.5% PEI with ice cold 50 mM Tris-HCl buffer (pH 7.4) containing 0.9% NaCl.

[4] = system: mice; assay: Anti-depressants activity in forced swimming test; format: in vivo; details: 60 min before testing
Method: Each mouse was placed in a 25 cm glass cylinder (10 cm diameter) containing 15 cm of water maintained at 22±1, and was forced to swim for 10 min. 24 hours later, the mouse was replaced into the cylinder and the total duration of immobility was recorded during the last 5 min of the 6-min testing period. Mice are judged immobile when they float in an upright position and make only small movements to keep their head above water. Test drugs were suspended in 3% Tween 80 solution, and administered orally (po) 60 min before the testing.

[5] = CHO-K1 cells, 1 nM [3H]Ketanserin, read-out: binding affinity (IC50) 5-HT2A
[6] = CHO-K1 membranes, 1.3 nM [3H]Mesulergine, read-out: binding affinity (IC50) 5-HT2C
[7] = HEK-293 membrane, 2 nM [3H]Imipramine, read-out: binding affinity Serotonin Transporter

T1 sequence (P28223 whole entry): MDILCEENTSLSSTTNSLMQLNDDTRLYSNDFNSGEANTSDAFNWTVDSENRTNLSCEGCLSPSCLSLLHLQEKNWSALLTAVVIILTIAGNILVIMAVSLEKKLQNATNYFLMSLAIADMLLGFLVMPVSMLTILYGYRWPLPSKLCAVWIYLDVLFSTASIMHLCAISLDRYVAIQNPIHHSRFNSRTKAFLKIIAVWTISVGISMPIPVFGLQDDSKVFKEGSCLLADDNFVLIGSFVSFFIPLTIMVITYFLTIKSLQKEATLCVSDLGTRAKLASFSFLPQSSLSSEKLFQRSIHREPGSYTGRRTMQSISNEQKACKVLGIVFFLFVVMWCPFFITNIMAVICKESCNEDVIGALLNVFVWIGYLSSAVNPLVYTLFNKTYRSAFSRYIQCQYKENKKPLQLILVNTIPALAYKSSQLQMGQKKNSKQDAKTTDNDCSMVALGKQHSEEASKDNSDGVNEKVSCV
T3 sequence (P31645 whole entry): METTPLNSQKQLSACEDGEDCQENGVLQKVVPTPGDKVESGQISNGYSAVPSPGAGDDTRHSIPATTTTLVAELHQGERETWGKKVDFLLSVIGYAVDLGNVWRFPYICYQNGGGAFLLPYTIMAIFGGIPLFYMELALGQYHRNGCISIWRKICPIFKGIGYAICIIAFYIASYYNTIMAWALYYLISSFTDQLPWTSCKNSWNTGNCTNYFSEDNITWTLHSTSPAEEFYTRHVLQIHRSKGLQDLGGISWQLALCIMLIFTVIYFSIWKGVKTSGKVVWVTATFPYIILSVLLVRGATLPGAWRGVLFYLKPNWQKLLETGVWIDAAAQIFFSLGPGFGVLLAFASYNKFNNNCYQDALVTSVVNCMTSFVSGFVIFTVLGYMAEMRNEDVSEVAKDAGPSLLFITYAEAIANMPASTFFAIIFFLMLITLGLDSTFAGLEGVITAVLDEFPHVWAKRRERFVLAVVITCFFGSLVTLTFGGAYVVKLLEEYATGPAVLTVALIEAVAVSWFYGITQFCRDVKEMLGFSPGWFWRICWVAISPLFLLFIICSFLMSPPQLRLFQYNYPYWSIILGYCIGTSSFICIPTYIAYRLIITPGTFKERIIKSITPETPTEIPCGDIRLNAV

Structure (SMILES)	IC50 [1] [nM]	IC50 [2] [nM]	IC50 [3] [nM]	Immobility in forced swimming test ([4]; 50 mg/kg po)	IC50 [1, 5] [nM]	IC50 [2, 6] [nM]	IC50 [3, 7] [nM]	Immobility in forced swimming test ([4]; 25 mg/kg po) [%]	Immobility in forced swimming test ([4]; 100 mg/kg po)
Clc1cccc(N2CCN(CCCNc3ncnc4c3nc(-c3ccccc3)n4-c3ccccc3)CC2)c1Cl [Example 1, N-(3-(4-(2,3-dichlorophenyl)piperazin-1-yl)propyl)-8,9-diphenyl-9H-purine-6-amine]	14	86	64	41.79%					
Cc1cccc(N2CCN(CCCNc3ncnc4c3nc(-c3ccccc3)n4-c3ccccc3)CC2)c1C [Example 2, N-(3-(4-(2,3-dimethylphenyl)piperazin-1-yl)propyl)-8,9-diphenyl-9H-purine-6-amine]				47.13 ± 10.41%	32	163	75	58.34 ± 11.05	
CCc1nc2c(NCCN3CCN(c4cccc(C)c4C)CC3)ncnc2n1-c1ccccc1 [Example 10, N-(2-(4-(2,3-dimethylphenyl)piperazin-1-yl)ethyl)-8-ethyl-9-phenyl-9H-purine-6-amine]				80.58 ± 11.21%	11	106	161	74.56 ± 14.08	
CCCc1nc2c(NCCN3CCN(c4cccc(C)c4C)CC3)ncnc2n1-c1ccccc1 [Example 12, N-(2-(4-(2,3-dimethylphenyl)piperazin-1-yl)ethyl)-9-phenyl-8-propyl-9H-purine-6-amine]					13	147	93	94.69 ± 12.46	
Cc1cccc(N2CCN(CCCNc3ncnc4c3ncn4-c3ccccc3)CC2)c1C [Example 13, N-(3-(4-(2,3-dimethylphenyl)piperazin-1-yl)propyl)-9-phenyl-9H-purine-6-amine]					56	294	35	89.81 ± 7.14	
Cc1cccc(N2CCN(CCNc3ncnc4c3nc(-c3ccccc3)n4-c3ccccc3)CC2)c1C [Example 18, N-(2-(4-(2,3-dimethylphenyl)piperazin-1-yl)ethyl)-8,9-diphenyl-9H-purine-6-amine]					28	216	575	89.98 ± 11.45	
Cc1cccc(N2CCN(CCCNc3ncnc4c3nc(-c3ccccc3)n4C)CC2)c1C [Example 23, N-(3-(4-(2,3-dimethylphenyl)piperazin-1-yl)propyl)-9-methyl-8-phenyl-9H-purine-6-amine]					36	76	106	99.59 ± 6.34	
Cc1cccc(N2CCN(CCCNc3ncnc4c3nc(C)n4C)CC2)c1C [Example 28, N-(3-(4-(2,3-dimethylphenyl)piperazin-1-yl)propyl)-8,9-dimethyl-9H-purine-6-amine]					65	430	85	87.65 ± 7.08	
Cc1cccc(N2CCN(CCCNc3ncnc4c3ncn4-c3ccc4c(c3)OCO4)CC2)c1C [Example 34, 9-(benzo[d][1,3]dioxol-5-yl)-N-(3-(4-(2,3-dimethylphenyl)piperazin-1-yl)propyl)-9H-purine-6-amine]				96.83 ± 11.02%	54	230	6	76.92 ± 10.04	
Cc1cccc(N2CCN(CC(O)CNc3ncnc4c3nc(C)n4-c3ccc4c(c3)OCO4)CC2)c1C (centres unmarked) [Example 35, 1-(9-(benzo[d][1,3]dioxol-5-yl)-8-methyl-9H-purin-6-ylamino)-3-(4-(2,3-dimethylphenyl)piperazin-1-yl)propan-2-ol]					106	789	27	87.36 ± 6.89	
Cc1cccc(N2CCN(CCCNc3ncnc4c3nc(C)n4-c3ccc4c(c3)OCO4)CC2)c1C [Example 36, 9-(benzo[d][1,3]dioxol-5-yl)-N-(3-(4-(2,3-dimethylphenyl)piperazin-1-yl)propyl)-8-methyl-9H-purine-6-amine]				86.77 ± 11.28%	29	285	4	79.93 ± 13.23	
Cc1cccc(N2CCN(CC(O)CNc3ncnc4c3nc(C(C)(C)C)n4C)CC2)c1C (centres unmarked) [Example 38, 1-(8-tert-butyl-9-methyl-9H-purin-6-ylamino)-3-(4-(2,3-dimethylphenyl)piperazin-1-yl)propan-2-ol]				64.14 ± 10.74%	404	1590	19	74.86 ± 9.75	
CCc1nc2c(NCCCN3CCN(c4cccc(C)c4C)CC3)ncnc2n1-c1ccc2c(c1)OCO2 [Example 39, 9-(benzo[d][1,3]dioxol-5-yl)-N-(3-(4-(2,3-dimethylphenyl)piperazin-1-yl)propyl)-8-ethyl-9H-purine-6-amine]					33	328	21	88.94 ± 5.41	
CCc1nc2c(NCC(O)CN3CCN(c4cccc(C)c4C)CC3)ncnc2n1-c1ccc2c(c1)OCO2 (centres unmarked) [Example 40, 1-(9-(benzo[d][1,3]dioxol-5-yl)-8-ethyl-9H-purin-6-ylamino)-3-(4-(2,3-dimethylphenyl)piperazin-1-yl)propan-2-ol]					125	713	18	98.20 ± 10.00	
Cc1cccc(N2CCN(CCCNc3ncnc4c3ncn4-c3ccc4c(c3)OCCO4)CC2)c1C [Example 41, 9-(2,3-dihydrobenzo[b][1,4]dioxin-6-yl)-N-(3-(4-(2,3-dimethylphenyl)piperazin-1-yl)propyl)-9H-purine-6-amine]					16	224	7	105.95 ± 4.92	
Cc1cccc(N2CCN(CC(O)CNc3ncnc4c3ncn4-c3ccc4c(c3)OCCO4)CC2)c1C (centres unmarked) [Example 42, 1-(9-(2,3-dihydrobenzo[b][1,4]dioxin-6-yl)-9H-purin-6-ylamino)-3-(4-(2,3-dimethylphenyl)piperazin-1-yl)propan-2-ol]					40	560	8	86.65 ± 6.40	
Cc1c(Cl)cccc1N1CCN(CCCNc2ncnc3c2nc(-c2ccccc2)n3-c2ccccc2)CC1 [Example 67, N-(3-(4-(3-chloro-2-methylphenyl)piperazin-1-yl)propyl)-8,9-diphenyl-9H-purine-6-amine]					42	247	96		
Cc1cccc(N2CCN(CCCNc3ncnc4c3nc(-c3ccccc3)n4-c3ccc(F)cc3)CC2)c1C [Example 79, N-(3-(4-(2,3-dimethylphenyl)piperazin-1-yl)propyl)-9-(4-fluorophenyl)-8-phenyl-9H-purine-6-amine]					43	303	67		
CSc1ccc(-n2c(C)nc3c(NCCN4CCN(c5cccc(C)c5C)CC4)ncnc32)cc1 [Example 85, N-(2-(4-(2,3-dimethylphenyl)piperazin-1-yl)ethyl)-8-methyl-9-(4-(methylthio)phenyl)-9H-purine-6-amine hydrochloride]					9.6	70	362		
CNCCC(Oc1ccc(C(F)(F)F)cc1)c1ccccc1 (centres unmarked) [Fluoxetine, reference compound]				70.4^b %					59.5^b %
